Laboratory results as given in the NIST ThermoML archive (doi:10.1016/j.fluid.2014.10.004).
± gives the expanded uncertainty stated by the source.

Assays:
[1] = refractive index (Na D-line) (dimensionless); conditions: 101.33 kPa, Liquid, Standard Abbe refractometry
[2] = 101.3 kPa, Liquid, Sing-around technique in a fixed-path interferometer

SMILES	refractive index ([1]; 298.15 K)	refractive index ([1]; 308.15 K)	refractive index ([1]; 318.15 K)	speed of sound ([2]; 298.15 K)	speed of sound ([2]; 308.15 K)	speed of sound ([2]; 318.15 K)
ClCCCCCl [1,4-dichlorobutane]	1.45224 ± 0.00031	1.44756 ± 0.00031	1.44279 ± 0.00031	1286.6 ± 1.2 m/s	1251 ± 1.2 m/s	1215.7 ± 1.2 m/s
CCCCCl [1-chlorobutane]	1.39953 ± 0.00032	1.39413 ± 0.00032	1.38851 ± 0.00032	1119 ± 1.2 m/s	1078 ± 1.2 m/s	1037.3 ± 1.2 m/s
CCCCCCl [1-chloropentane]	1.41015 ± 0.00031	1.40501 ± 0.00031	1.39984 ± 0.00031	1164.2 ± 1.2 m/s	1124.9 ± 1.2 m/s	1085.8 ± 1.1 m/s
C[N+](=O)[O-] [nitromethane]	1.37951 ± 0.0004 [middle of 8 runs]	1.37473 ± 0.0004 [middle of 7 runs]	1.37001 ± 0.0004 [middle of 7 runs]	1321.3 ± 1.8 m/s [middle of 9 runs]	1281.9 ± 1.8 m/s [middle of 7 runs]	1242.5 ± 1.7 m/s [middle of 8 runs]
ClC(Cl)Cl [trichloromethane]	1.44209 ± 0.00037	1.43598 ± 0.00037	1.42986 ± 0.00037	984.42 ± 1.5 m/s	950.45 ± 1.5 m/s	916.63 ± 1.5 m/s
